With `CC(C)(C)OC(=O)N[C@H](Cc1ccc(CC(F)(F)C(F)(F)F)cc1)[C@@H](O)c1cccc(Cl)c1` (racemic) [Example 372, tert-butyl (1RS,2SR)-2-(3-chlorophenyl)-2-hydroxy-1-[4-(2,2,3,3,3-pentafluoropropyl)benzyl]ethylcarbamate] the melting point was 156 to 157 °C.
`O=C(N[C@H](Cc1ccc(CC(F)(F)C(F)(F)F)cc1)[C@@H](O)c1cccc(Cl)c1)c1ccc(F)c2ccccc12` (racemic) [Example 373, N-[(1RS,2SR)-1-[4-(2,2,3,3,3-pentafluoropropyl)benzyl]-2-(3-chlorophenyl)-2-hydroxyethyl]-4-fluoro-1-naphthamide] gave a melting point of 191 to 192 °C.
In the case of `O=C(N[C@H](Cc1ccc(CC(F)(F)C(F)(F)F)cc1)[C@@H](O)c1cccc(Cl)c1)c1cccc2c1C=CCCC2` (racemic) [Example 374, N-[(1RS,2SR)-1-[4-(2,2,3,3,3-pentafluoropropyl)benzyl]-2-(3-chlorophenyl)-2-hydroxyethyl]-6,7-dihydro-5H-benzo[a]cycloheptene-1-carboxamide], the melting point is reported as 176 to 177 °C.
With `O=C(N[C@H](Cc1ccc(CC(F)(F)C(F)(F)F)cc1)[C@@H](O)c1cccc(Cl)c1)c1cccc2c(Cl)cccc12` (racemic) [Example 375, 5-chloro-N-{(1RS,2SR)-2-(3-chlorophenyl)-2-hydroxy-1-[4-(2,2,3,3,3-pentafluoropropyl)benzyl]ethyl}-1-naphthamide] the melting point was 216 to 217 °C.
`CC1(C)COc2ccc(C[C@@H](NC(=O)c3cccc4c3C=CCCC4)[C@@H](O)c3cccc(Cl)c3)cc21` (racemic) [Example 377, N-{(1RS,2SR)-2-(3-chlorophenyl)-1-[(3,3-dimethyl-2,3-dihydro-1-benzofuran-5-yl)methyl]-2-hydroxyethyl}-6,7-dihydro-5H-benzo[a]cycloheptene-1-carboxamide] showed a melting point of 149 to 150 °C.
Work on `CC1(C)COc2ccc(C[C@@H](NC(=O)c3cccc4c(Cl)cccc34)[C@@H](O)c3cccc(Cl)c3)cc21` (racemic) [Example 378, 5-chloro-N-{(1RS,2SR)-2-(3-chlorophenyl)-1-[(3,3-dimethyl-2,3-dihydro-1-benzofuran-5-yl)methyl]-2-hydroxyethyl}-1-naphthamide] yielded a melting point of 191 to 192 °C.
In the case of `CC(C)(C)C(F)(F)c1ccc(C[C@@H](NC(=O)c2ccc(F)c3ccccc23)[C@@H](O)c2cccc(Cl)c2)cc1` (racemic) [Example 379, N-{(1RS,2SR)-2-(3-chlorophenyl)-1-[4-(1,1-difluoro-2,2-dimethylpropyl)benzyl]-2-hydroxyethyl}-4-fluoro-1-naphthamide], the melting point is reported as 104 to 106 °C.
`CC(C)(C)C(F)(F)c1ccc(C[C@@H](NC(=O)c2cccc3c2C=CCCC3)[C@@H](O)c2cccc(Cl)c2)cc1` (racemic) [Example 380, N-{(1RS,2SR)-2-(3-chlorophenyl)-1-[4-(1,1-difluoro-2,2-dimethylpropyl)benzyl]-2-hydroxyethyl}-6,7-dihydro-5H-benzo[a]cycloheptene-1-carboxamide] gave a melting point of 119 to 120 °C.
`CC(C)(C)C(F)(F)c1ccc(C[C@@H](NC(=O)c2cccc3c(Cl)cccc23)[C@@H](O)c2cccc(Cl)c2)cc1` (racemic) [Example 381, 5-chloro-N-{(1RS,2SR)-2-(3-chlorophenyl)-1-[4-(1,1-difluoro-2,2-dimethylpropyl)benzyl]-2-hydroxyethyl}-1-naphthamide] gave a melting point of 99 to 101 °C.
`CC(=O)O[C@H](c1ccc(F)cc1)[C@H](Cc1cccc(OC(F)(F)C(F)F)c1)NC(=O)c1cccc2c1C=CCCC2` (racemic) [Example 382, (1RS,2SR)-2-[(6,7-dihydro-5H-benzo[a]cyclohepten-1-ylcarbonyl)amino]-1-(4-fluorophenyl)-3-[3-(1,1,2,2-tetrafluoroethoxy)phenyl]propyl acetate] showed a melting point of 176 to 177 °C.
`CC(C)(C)OC(=O)NCC(=O)O[C@H](c1ccc(F)cc1)[C@H](Cc1cccc(OC(F)(F)C(F)F)c1)NC(=O)c1cccc2c1C=CCCC2` (racemic) [Example 386, N-(tert-butoxycarbonyl)glycine (1RS,2SR)-2-[(6,7-dihydro-5H-benzo[a]cyclohepten-1-ylcarbonyl)amino]-1-(4-fluorophenyl)-3-[3-(1,1,2,2-tetrafluoroethoxy)phenyl]propyl ester] gave a melting point of 151 to 152 °C.
For `CC(C)(C)OC(=O)NCC(=O)O[C@H](c1ccc(F)cc1)[C@H](Cc1cccc(OC(F)(F)C(F)F)c1)NC(=O)c1ccc(F)c2ccccc12` (racemic) [Example 390, N-(tert-butoxycarbonyl)glycine (1RS,2SR)-2-[(4-fluoro-1-naphthoyl)amino]-1-(4-fluorophenyl)-3-[3-(1,1,2,2-tetrafluoroethoxy)phenyl]propyl ester], the melting point was 126 to 127 °C.
`O=C(N[C@@H](Cc1ccc(C(F)(F)F)cc1)[C@H](O)c1ccc(F)cc1)c1ccc(C(F)F)c2ccccc12` [Example 64, 4-(difluoromethyl)-N-((1S,2R)-2-(4-fluorophenyl)-2-hydroxy-1-((4-(trifluoromethyl)phenyl)methyl)ethyl)-1-naphthalenecarboxamide] gave a melting point of 212 to 213 °C.

Source: patent publication US6982348B2, “Aminoethanol derivatives” (Takeda Pharmaceutical Company Limited, priority 2001, dated 2006)
